US20010029636A1, “Hair bleaching and colouring compositions” (priority 1999, published 2001)

Assay: Cuticle abrasion method after bleaching of hair switches
Details: solution 2 versus solution 1
Method: The bleaching solutions 1 and 2 were each divided into three parts A, B and C. A was adjusted to pH 9.7, B to pH 10.1 and C to pH 10.5. Each solution was adjusted to the required pH with ammonium hydroxide (ex sigma, 28.1% active). The six solutions were each dosed (1.6 ml/g hair) onto a separate Spanish hair switch (8 g, 8″, ex Hugo Royer Hair Suppliers) in a disposable petri dish using an automatic pipette. Each switch was then agitated for 90 sec using a spoon ended plastic spatula. […] Each switch was then rinsed and left to dry naturally. Step 3: Cuticle Abrasion Method This method provides a measure of the extent of hair damage following the bleaching step. […] Rinse and repeat. The base wash used is 12% SLES, 2% CAPB in water. Dry them overnight. […] Record the initial weight of the hair. Add 200 ml of distilled water to the blender, making sure that the hair is covered with water. […] Transfer the liquid to a fresh tube. Wash the blender and add this, to the tube, as well. Pour the supernatant in 4×50 ml centrifuge tubes and centrifuge at 4300 rpm for 10 mins, 22° C. Pour the pellet on the filters, wash the tube and add this as well. Transfer the supernatant to centrifuge tubes and centrifuge at 4300 rpm for 10 min. Transfer the pellet to a beaker, wash the tube 2-3 times and top with water until 50 ml. Freeze them until solid. Freeze dry them for 24 hours in Modulyo freeze drier. Once dry, weigh amount of cuticle recovered. Final measure is calculated as follows: […] This measure provides the % weight of cuticle abraded from the hair fibres which reflects the state of damage of the hair tested. Thus the greater amount of cuticle recovered the more damaged the tested hair.

CC(C)CCC[C@@H](C)[C@H]1CC[C@H]2[C@@H]3CC=C4C[C@@H](O)CC[C@]4(C)[C@H]3CC[C@]12C [cholesterol]
% reduction in damage of hair when cholesterol present (pH 9.7): 3.95% | % reduction in damage of hair when cholesterol present (pH 10.1): 12.211% | % reduction in damage of hair when cholesterol present (pH 10.5): 30.902%
